In US11479551B2, “MTA-cooperative PRMT5 inhibitors” (Mirati Therapeutics, Inc., priority 2019, dated 2022):
Where two headings read alike, the source gives them in different places.

Columns and labels:
[1] = test system: PRMT5-dependent Symmetric Di-methyl Arginine signal in HCT116 parental cells; experiment: SYM11 In-Cell Western, HCT116 parental; assay type: cell-based; conditions: Homo sapiens, HCT-116, 96 h, 4 days of treatment, SYM11/DRAQ5 ratio
Summary of the method: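 HCT116 parental cells (2,000/well, McCoy's 5A with 10% FBS) dosed with PRMT5 inhibitors for four days at 37° C. Fixed in paraformaldehyde and methanol, then stained with SYM11 antibody and DRAQ5.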

[2] = test system: PRMT5-dependent Symmetric Di-methyl Arginine signal in HCT116 homozygous MTAP knockout cells; experiment: SYM11 In-Cell Western, HCT116 MTAP knockout; assay type: cell-based; conditions: Homo sapiens, HCT-116, 96 h, HCT116 homozygous MTAP knockout cells, 4 days of treatment, SYM11/DRAQ5 ratio; read-out: In-cell-Western (SYM11) HCT116 MTAP_KO IC50
PRMT5/MEP50 complex = PRMT5/MEP50 complex (Homo sapiens (Human), UniProt O14744); experiment: PRMT5:MEP50 HotSpot Assay (full-length histone H2A substrate, plus and minus MTA); assay type: biochemical
Summary of the method: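 Radiometric filter-binding format using recombinant full-length histone H2A as substrate. After the reaction was stopped, mixtures went onto filter paper and tritiated H2A was quantified by scintillation counting.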

[3] = test system: HCT116 homozygous MTAP knockout cells; experiment: Proliferation assay (CellTiter-Glo, 10 days of treatment), HCT116 MTAP knockout; assay type: cell-based; conditions: Homo sapiens, HCT-116, 240 h, read-out: Proliferation HCT116MTAP_KO IC50
Summary of the method: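 Cells (250/well) seeded in McCoy's 5A with 10% FBS, then treated the next day with a PRMT5 inhibitor dose response at 37 °C, 5% CO2. On day 6 they were split 1:10 into fresh medium with the same compound concentration. CellTiter-Glo viability was read on day 11 and IC50 taken after 10 days of treatment.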

HCT116 parental cells = experiment: Proliferation assay (CellTiter-Glo, 10 days of treatment), HCT116 parental; assay type: cell-based; conditions: Homo sapiens, HCT-116, 240 h
Procedure: Control samples were analyzed in parallel.
Briefly, on Day 0, 250 HCT116 parental or HCT116 homozygous MTAP knockout cell were seeded in 96 well plates in McCoy's 5A supplemented with 10% fetal bovine serum and pen/strep and the cells were incubated overnight at 37° C. plus 5% CO2.
The following day, cells were treated with DMSO vehicle control or a dose response of PRMT5 inhibitors and incubated at 37 C plus 5% CO2 for five days. On Day 6, the cells were trypsinized and split 1:10 into new 96-well plates with fresh medium containing the same concentration of PRMT5 inhibitor and incubated for an additional 5 days at 37° C. plus 5% CO^2.
On Day 11, the viability of the cells was measured using a CTG assay kit (CellTiter-Glo; Promega cat.no G7573) in accordance with the manufacturer's instructions. The IC50 values for each compound after 10 days of treatment were calculated using GraphPad PRISM software.

[4] = IC50 + 2 μM MTA, in the presence of 2 μM MTA

Sequence of PRMT5/MEP50 complex (O14744 2-637): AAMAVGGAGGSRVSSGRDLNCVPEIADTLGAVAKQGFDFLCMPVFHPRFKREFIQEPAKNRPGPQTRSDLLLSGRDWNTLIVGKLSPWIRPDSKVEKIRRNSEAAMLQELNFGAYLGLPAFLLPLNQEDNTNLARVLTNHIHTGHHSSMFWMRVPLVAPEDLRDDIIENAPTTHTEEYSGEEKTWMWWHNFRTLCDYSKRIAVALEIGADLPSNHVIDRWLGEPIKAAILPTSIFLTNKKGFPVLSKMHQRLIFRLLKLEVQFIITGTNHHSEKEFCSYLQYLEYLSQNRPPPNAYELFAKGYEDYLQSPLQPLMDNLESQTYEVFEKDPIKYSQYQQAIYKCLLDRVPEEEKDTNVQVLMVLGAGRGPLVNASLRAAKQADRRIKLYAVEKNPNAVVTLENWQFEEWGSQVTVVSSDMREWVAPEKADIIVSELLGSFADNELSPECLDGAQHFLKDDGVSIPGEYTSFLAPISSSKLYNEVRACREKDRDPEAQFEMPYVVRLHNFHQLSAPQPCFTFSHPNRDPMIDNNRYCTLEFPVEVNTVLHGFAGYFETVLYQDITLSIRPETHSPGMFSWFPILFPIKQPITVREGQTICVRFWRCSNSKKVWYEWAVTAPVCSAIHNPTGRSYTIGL
Sequence of PRMT5/MEP50 complex (Q9BQA1 2-342 partner): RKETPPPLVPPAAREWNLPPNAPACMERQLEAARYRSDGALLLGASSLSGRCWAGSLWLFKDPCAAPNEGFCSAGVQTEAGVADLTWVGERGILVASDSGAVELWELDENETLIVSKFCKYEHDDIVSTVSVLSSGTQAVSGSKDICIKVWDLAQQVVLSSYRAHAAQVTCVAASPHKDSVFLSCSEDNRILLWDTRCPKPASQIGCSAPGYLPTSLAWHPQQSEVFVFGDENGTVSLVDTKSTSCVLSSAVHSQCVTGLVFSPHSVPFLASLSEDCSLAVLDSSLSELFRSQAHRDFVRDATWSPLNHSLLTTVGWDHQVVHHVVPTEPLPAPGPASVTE

Compound | IC50 [2] [µM] | IC50 (PRMT5/MEP50 complex; [4]) [µM] | IC50 (PRMT5/MEP50 complex; in the absence of MTA, read-out: IC50) [µM] | IC50 [3] [µM] | IC50 [1] [µM] | IC50 (HCT116 parental cells) [µM]
Cn1ncc(-c2ccc3c(=O)[nH]nc(CN)c3c2)c1-c1ccc2ncccc2c1C#N [Example 4-149, 6-(4-(4-(aminomethyl)-1-oxo-1,2-dihydrophthalazin-6-yl)-1-methyl-1H-pyrazol-5-yl)quinoline-5-carbonitrile] | 0.135 | 0.282 |  | 0.359 | 6.35 | > 10
Cc1ccc(-c2c(-c3ccc4c(=O)[nH]nc(CN)c4c3)cnn2C)c(C#N)c1Cl [Example 4-151, 2-(4-(4-(aminomethyl)-1-oxo-1,2-dihydrophthalazin-6-yl)-1-methyl-1H-pyrazol-5-yl)-6-chloro-5-methylbenzonitrile] | 0.051 | 0.606 |  | 0.504 | 5.81 | > 10
COc1ccc(-c2c(-c3ccc4c(=O)[nH]nc(CN)c4c3)cnn2C)c(C#N)c1 [Example 4-160, 2-(4-(4-(aminomethyl)-1-oxo-1,2-dihydrophthalazin-6-yl)-1-methyl-1H-pyrazol-5-yl)-5-methoxybenzonitrile] | 0.944 | 1.11 |  | 2.03 | > 10 | 7.7
Cn1ncc(-c2ccc3c(=O)[nH]nc(CN)c3c2)c1-c1cc(C2CC2)ccc1C#N [Example 4-161, 2-(4-(4-(aminomethyl)-1-oxo-1,2-dihydrophthalazin-6-yl)-1-methyl-1H-pyrazol-5-yl)-4-cyclopropylbenzonitrile] | 0.0875 | 0.707 |  | 0.617 | 6.56 | 6.71
N#Cc1ccccc1-c1c[nH]c2ncc(-c3ccc4c(=O)[nH]nc(CN)c4c3)cc12 [Example 4-163, 2-(5-(4-(aminomethyl)-1-oxo-1,2-dihydrophthalazin-6-yl)-1H-pyrrolo[2,3-b]pyridin-3-yl)benzonitrile] | > 3.33 | 3.82 |  | > 10 | > 3.33 | > 10
Cn1ncc(-c2ccc3c(=O)[nH]nc(CN)c3c2)c1-c1cc(Cl)c(Cl)cc1C#N [Example 4-164, 2-(4-(4-(aminomethyl)-1-oxo-1,2-dihydrophthalazin-6-yl)-1-methyl-1H-pyrazol-5-yl)-4,5-dichlorobenzonitrile] | 0.0933 | 0.464 |  | 0.583 | > 10 | > 10
COc1cc(Cl)c(C#N)c(-c2c(-c3ccc4c(=O)[nH]nc(CN)c4c3)cnn2C)c1 [Example 4-169, 2-(4-(4-(aminomethyl)-1-oxo-1,2-dihydrophthalazin-6-yl)-1-methyl-1H-pyrazol-5-yl)-6-chloro-4-methoxybenzonitrile] | 0.0355 | 1.35 |  | 0.294 | 4.52 | > 10
Cc1cc(Cl)cc(-c2c(-c3ccc4c(=O)[nH]nc(CN)c4c3)cnn2C)c1C#N [Example 4-180, 2-(4-(4-(aminomethyl)-1-oxo-1,2-dihydrophthalazin-6-yl)-1-methyl-1H-pyrazol-5-yl)-4-chloro-6-methylbenzonitrile] | 0.0319 | 0.597 |  | 7.11 | 1.41 | 0.121
Cn1ncc(-c2ccc3c(=O)[nH]nc(CN)c3c2)c1-c1ccc2ccccc2n1 [Example 4-182, 4-(aminomethyl)-6-(1-methyl-5-(quinolin-2-yl)-1H-pyrazol-4-yl)phthalazin-1(2H)-one] | 0.058 | 1.42 |  | 0.572 | > 1 | 7.25
Cn1ncc(-c2ccc3c(=O)[nH]nc(CN)c3c2)c1-c1ccc2cccnc2c1C#N [Example 4-192, 7-(4-(4-(aminomethyl)-1-oxo-1,2-dihydrophthalazin-6-yl)-1-methyl-1H-pyrazol-5-yl)quinoline-8-carbonitrile] | 0.256 | 0.89 |  | 2.14 | > 10 | > 10
CCc1cc(Cl)cc(-c2c(-c3ccc4c(=O)[nH]nc(CN)c4c3)cnn2C)c1C#N [Example 4-200, 2-(4-(4-(aminomethyl)-1-oxo-1,2-dihydrophthalazin-6-yl)-1-methyl-1H-pyrazol-5-yl)-4-chloro-6-ethylbenzonitrile] | 0.032 | 0.156 |  | 0.071 | 1.75 | 4.3

More lines, in order of falling IC50 [2], values ahead:

IC50 [2] [µM] | IC50 (PRMT5/MEP50 complex; [4]) [µM] | IC50 (PRMT5/MEP50 complex; in the absence of MTA, read-out: IC50) [µM] | IC50 [3] [µM] | Compound | IC50 [1] [µM] | IC50 (HCT116 parental cells) [µM]
0.031 | 0.656 |  | 0.234 | CCCc1cccc(-c2c(-c3ccc4c(=O)[nH]nc(CN)c4c3)cnn2C)c1C#N [Example 4-189, 2-(4-(4-(aminomethyl)-1-oxo-1,2-dihydrophthalazin-6-yl)-1-methyl-1H-pyrazol-5-yl)-6-propylbenzonitrile] | 1.83 | > 10
0.03 | 0.229 |  | 0.307 | Cn1ncc(-c2ccc3c(=O)[nH]nc(CN)c3c2)c1-c1ccc(Cl)c(Cl)c1C#N [Example 4-148, 6-(4-(4-(aminomethyl)-1-oxo-1,2-dihydrophthalazin-6-yl)-1-methyl-1H-pyrazol-5-yl)-2,3-dichlorobenzonitrile] | 8.55 | 7.75
0.025 | 0.719 |  | 0.256 | COc1cnc2ccc(-c3c(-c4ccc5c(=O)[nH]nc(CN)c5c4)cnn3C)c(C#N)c2c1 [Example 4-197, 6-(4-(4-(aminomethyl)-1-oxo-1,2-dihydrophthalazin-6-yl)-1-methyl-1H-pyrazol-5-yl)-3-methoxyquinoline-5-carbonitrile] | > 1 | 8.57
0.021 | 0.111 |  | 0.136 | Cn1ncc(-c2ccc3c(=O)[nH]nc(CN)c3c2)c1-c1cccc(C2CC2)c1C#N [Example 4-198, 2-(4-(4-(aminomethyl)-1-oxo-1,2-dihydrophthalazin-6-yl)-1-methyl-1H-pyrazol-5-yl)-6-cyclopropylbenzonitrile] | 1.27 | 7.34
0.018 | 0.673 |  | 0.661 | Cc1cc(Cl)c(C#N)c(-c2c(-c3ccc4c(=O)[nH]nc(CN)c4c3)cnn2C)c1 [Example 4-150, 2-(4-(4-(aminomethyl)-1-oxo-1,2-dihydrophthalazin-6-yl)-1-methyl-1H-pyrazol-5-yl)-6-chloro-4-methylbenzonitrile] | 8.39 | > 10
0.011 | 0.043 | 0.28 | 0.05 | Cn1ncc(-c2ccc3c(=O)[nH]nc(CN)c3c2)c1-c1ccc2ccccc2c1C#N [Example 4-147, 2-(4-(4-(aminomethyl)-1-oxo-1,2-dihydrophthalazin-6-yl)-1-methyl-1H-pyrazol-5-yl)-1-naphthonitrile] | 1.26 | 1.91
0.011 | 0.653 |  | 0.154 | Cn1ncc(-c2ccc3c(=O)[nH]nc(CN)c3c2)c1-c1ccc2c(c1C#N)CCCO2 [Example 4-196, 6-(4-(4-(aminomethyl)-1-oxo-1,2-dihydrophthalazin-6-yl)-1-methyl-1H-pyrazol-5-yl)chromane-5-carbonitrile] | 1.32 | 9.29
0.007 | 0.239 |  | 1.9 | Cn1ncc(-c2ccc3c(=O)[nH]nc(CN)c3c2)c1-c1cnn(Cc2ccccc2)c1Cl [Example 4-187, 4-(aminomethyl)-6-(1′-benzyl-5′-chloro-2-methyl-1′H,2H-[3,4′-bipyrazol]-4-yl)phthalazin-1(2H)-one] | 1 | 1.36
0.004 | 0.127 |  | 0.107 | Cn1ncc(-c2ccc3c(=O)[nH]nc(CN)c3c2)c1-c1ccc2c(Cl)cccc2c1C#N [Example 4-184, 2-(4-(4-(aminomethyl)-1-oxo-1,2-dihydrophthalazin-6-yl)-1-methyl-1H-pyrazol-5-yl)-5-chloro-1-naphthonitrile] | > 10 | 9.4
0.004 | 0.099 |  | 0.039 | Cn1ncc(-c2ccc3c(=O)[nH]nc(CN)c3c2)c1-c1cc(Cl)cc(OC2CC2)c1C#N [Example 4-188, 2-(4-(4-(aminomethyl)-1-oxo-1,2-dihydrophthalazin-6-yl)-1-methyl-1H-pyrazol-5-yl)-4-chloro-6-cyclopropoxybenzonitrile] | > 10 | 0.904
